From ChEMBL document CHEMBL4396887, “Five-Membered N-Heterocyclic Scaffolds as Novel Amino Bioisosteres at γ-Aminobutyric Acid (GABA) Type A Receptors and GABA Transporters” (J Med Chem, 2019)

What was measured:
[1] = molecular target: GABA-A receptor; anion channel; experiment: Displacement of [3H]muscimol from GABA(A) receptor in Sprague-Dawley rat cortical synaptic membranes by liquid scintillation counting
[2] = cells; assay type: cell-based; settings: Homo sapiens, tsA201, 0.5 h
[3] = molecular target: Sodium- and chloride-dependent GABA transporter 1 (Homo sapiens, UniProt P30531); assay type: cell-based
Sodium- and chloride-dependent GABA transporter 1, sequence (P30531 whole entry): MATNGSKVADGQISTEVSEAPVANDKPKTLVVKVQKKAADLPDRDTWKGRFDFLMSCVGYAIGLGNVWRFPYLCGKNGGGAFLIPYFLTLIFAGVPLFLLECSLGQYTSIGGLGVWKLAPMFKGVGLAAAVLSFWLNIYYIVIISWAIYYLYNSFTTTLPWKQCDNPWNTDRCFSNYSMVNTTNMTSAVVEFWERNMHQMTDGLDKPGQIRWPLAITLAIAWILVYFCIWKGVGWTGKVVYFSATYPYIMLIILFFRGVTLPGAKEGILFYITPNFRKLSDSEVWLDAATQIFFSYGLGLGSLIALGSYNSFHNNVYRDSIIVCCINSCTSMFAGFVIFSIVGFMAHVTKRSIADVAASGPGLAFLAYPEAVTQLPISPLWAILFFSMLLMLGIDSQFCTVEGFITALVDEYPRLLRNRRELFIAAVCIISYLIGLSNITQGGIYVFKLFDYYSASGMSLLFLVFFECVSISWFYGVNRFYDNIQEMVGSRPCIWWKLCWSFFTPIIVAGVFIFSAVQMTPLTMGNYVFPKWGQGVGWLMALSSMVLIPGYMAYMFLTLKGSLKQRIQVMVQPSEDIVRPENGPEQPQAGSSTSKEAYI

[4] = molecular target: T1, Sodium- and chloride-dependent GABA transporter 2 (Homo sapiens) (UniProt Q9NSD5); experiment: Inhibition of human GAT2 expressed in Flp-In CHO cells assessed as reduction in [3H]GABA uptake at 100 uM incubated for 3 mins by liquid scintillation counting method relative to control; assay type: cell-based
T1 sequence (whole entry): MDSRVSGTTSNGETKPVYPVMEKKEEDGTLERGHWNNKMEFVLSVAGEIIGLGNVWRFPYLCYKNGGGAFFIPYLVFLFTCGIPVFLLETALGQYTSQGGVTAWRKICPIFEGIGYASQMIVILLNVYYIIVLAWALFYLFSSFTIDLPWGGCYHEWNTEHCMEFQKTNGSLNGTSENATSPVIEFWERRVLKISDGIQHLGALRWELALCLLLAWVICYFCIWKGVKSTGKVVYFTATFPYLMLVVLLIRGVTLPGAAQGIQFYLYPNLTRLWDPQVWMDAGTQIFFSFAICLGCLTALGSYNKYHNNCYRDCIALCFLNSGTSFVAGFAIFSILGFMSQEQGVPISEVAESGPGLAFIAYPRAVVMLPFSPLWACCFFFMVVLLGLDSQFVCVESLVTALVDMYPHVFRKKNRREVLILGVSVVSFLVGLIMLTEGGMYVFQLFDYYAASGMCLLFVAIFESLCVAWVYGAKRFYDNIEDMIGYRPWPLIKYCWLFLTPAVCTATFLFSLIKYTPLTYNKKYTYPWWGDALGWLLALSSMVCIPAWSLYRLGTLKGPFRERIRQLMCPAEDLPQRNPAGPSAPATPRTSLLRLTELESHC

[5] = molecular target: T2, Sodium- and chloride-dependent betaine transporter (Homo sapiens) (UniProt P48065); experiment: Inhibition of human BGT1 expressed in Flp-In CHO cells assessed as reduction in [3H]GABA uptake at 100 uM incubated for 3 mins by liquid scintillation counting method relative to control; assay type: cell-based
T2 sequence (whole entry): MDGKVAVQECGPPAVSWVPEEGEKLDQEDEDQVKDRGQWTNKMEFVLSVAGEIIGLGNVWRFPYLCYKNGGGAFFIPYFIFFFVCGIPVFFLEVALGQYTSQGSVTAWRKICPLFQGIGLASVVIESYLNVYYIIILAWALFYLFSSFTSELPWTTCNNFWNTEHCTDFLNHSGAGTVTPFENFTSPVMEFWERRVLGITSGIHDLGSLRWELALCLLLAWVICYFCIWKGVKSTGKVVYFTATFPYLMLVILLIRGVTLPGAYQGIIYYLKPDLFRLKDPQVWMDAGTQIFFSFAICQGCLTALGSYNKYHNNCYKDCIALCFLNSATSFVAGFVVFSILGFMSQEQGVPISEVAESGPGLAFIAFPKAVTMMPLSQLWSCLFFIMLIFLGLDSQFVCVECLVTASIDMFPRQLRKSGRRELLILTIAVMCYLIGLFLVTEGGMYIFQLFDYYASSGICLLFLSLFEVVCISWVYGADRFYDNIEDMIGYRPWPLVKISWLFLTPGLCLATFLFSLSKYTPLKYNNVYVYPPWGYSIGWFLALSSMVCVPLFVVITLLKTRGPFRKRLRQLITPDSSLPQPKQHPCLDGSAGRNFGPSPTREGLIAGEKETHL

[6] = molecular target: T3, GABA-A receptor; alpha-1/beta-2/gamma-2 (Homo sapiens, UniProt P14867+P47870+P18507); experiment: Agonist activity at recombinant human GABA-A alpha1beta2gamma2S receptor transiently expressed in human tsA201 cells incubated for 30 mins and measured up to 90 secs by FMP dye based FLIPR membrane potential blue assay; assay type: cell-based
T3 sequence (P14867 whole entry): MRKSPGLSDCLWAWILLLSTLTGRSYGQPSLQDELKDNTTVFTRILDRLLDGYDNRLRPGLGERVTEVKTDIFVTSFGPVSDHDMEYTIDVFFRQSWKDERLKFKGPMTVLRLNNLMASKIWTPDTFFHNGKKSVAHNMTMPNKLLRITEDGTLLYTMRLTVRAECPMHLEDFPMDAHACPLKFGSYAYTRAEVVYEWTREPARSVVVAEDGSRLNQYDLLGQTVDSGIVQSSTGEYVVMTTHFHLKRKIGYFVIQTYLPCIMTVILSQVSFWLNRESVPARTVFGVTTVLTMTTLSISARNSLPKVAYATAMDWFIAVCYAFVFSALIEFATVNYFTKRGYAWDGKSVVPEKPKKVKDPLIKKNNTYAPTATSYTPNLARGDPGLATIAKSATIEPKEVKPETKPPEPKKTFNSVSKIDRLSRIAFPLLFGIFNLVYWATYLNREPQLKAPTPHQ
T3 sequence (P47870 whole entry): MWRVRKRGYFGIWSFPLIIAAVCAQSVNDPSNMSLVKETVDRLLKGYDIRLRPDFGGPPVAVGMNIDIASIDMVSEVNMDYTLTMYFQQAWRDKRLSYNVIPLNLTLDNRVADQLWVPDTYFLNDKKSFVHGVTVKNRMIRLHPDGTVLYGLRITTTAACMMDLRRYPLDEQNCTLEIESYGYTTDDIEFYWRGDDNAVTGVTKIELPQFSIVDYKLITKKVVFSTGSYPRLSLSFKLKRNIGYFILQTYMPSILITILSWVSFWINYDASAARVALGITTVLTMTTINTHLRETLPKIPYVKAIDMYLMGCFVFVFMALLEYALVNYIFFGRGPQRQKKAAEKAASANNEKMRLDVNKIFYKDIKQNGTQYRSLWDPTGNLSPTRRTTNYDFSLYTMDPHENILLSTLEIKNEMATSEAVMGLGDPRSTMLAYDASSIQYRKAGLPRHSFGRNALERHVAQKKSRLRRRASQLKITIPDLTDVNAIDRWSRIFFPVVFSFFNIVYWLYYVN
T3 sequence (P18507 whole entry): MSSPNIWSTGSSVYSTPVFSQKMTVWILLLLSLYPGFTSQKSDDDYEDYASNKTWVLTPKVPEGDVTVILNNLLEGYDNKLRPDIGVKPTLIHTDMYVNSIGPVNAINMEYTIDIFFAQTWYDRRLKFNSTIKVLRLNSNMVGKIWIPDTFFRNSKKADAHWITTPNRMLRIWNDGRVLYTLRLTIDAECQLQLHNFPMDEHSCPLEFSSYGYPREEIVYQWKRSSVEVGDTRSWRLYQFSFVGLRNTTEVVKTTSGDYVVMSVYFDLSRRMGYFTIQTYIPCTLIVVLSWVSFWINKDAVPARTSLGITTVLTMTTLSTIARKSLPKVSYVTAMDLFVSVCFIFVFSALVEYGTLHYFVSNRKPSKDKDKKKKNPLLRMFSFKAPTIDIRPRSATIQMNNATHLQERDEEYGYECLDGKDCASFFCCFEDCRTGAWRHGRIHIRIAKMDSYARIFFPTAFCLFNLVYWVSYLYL

| SMILES | Ki [1] [µM] | EC50 ([2]; read-out: EC50) [µM] | EC50 ([2]; read-out: pEC50 (converted)) [µM] | IC50 ([3]; read-out: IC50) [µM] | inhibition [4] [%] | inhibition [5] [%] | IC50 ([3]; read-out: pIC50 (converted)) [µM] | EC50 [6] | pKi [1] |
| --- | --- | --- | --- | --- | --- | --- | --- | --- | --- |
| C[C@@H]1SC(N)=N[C@@H]1CC(=O)O (relative stereo) | 5.5 | 54 | 55 | > 100 | > 30 | > 30 |  | Not Active |  |
| O=C(O)C[C@H]1CCNC1 | 0.21 | 5.6 | 5.62 | 3.6 | > 30 | > 30 | 2.51 |  |  |
| O=C(O)C[C@@H]1CCNC1 | 5.6 |  |  | 3.9 | > 30 | > 30 | 3.16 | Not Active |  |
| C[C@H]1SC(N)=N[C@@H]1CC(=O)O (relative stereo) | 12 |  |  | > 100 | > 30 | > 30 |  | Not Active | 4.96 |
| O=C(O)CC1CNC=N1 (stereo unspecified) | 0.09 | 5.4 | 5.37 | 71.4 | > 30 | > 30 |  |  |  |
| NC1=NC(CC(=O)O)CN1 (stereo unspecified) | 0.45 | 12 | 11.5 | 96.9 | > 30 | > 30 |  |  | 6.37 |

Results, then the compound that gave them:

| Ki [1] [µM] | EC50 ([2]; read-out: EC50) [µM] | EC50 ([2]; read-out: pEC50 (converted)) [µM] | IC50 ([3]; read-out: IC50) [µM] | inhibition [4] [%] | inhibition [5] [%] | IC50 ([3]; read-out: pIC50 (converted)) [µM] | EC50 [6] | pKi [1] | SMILES |
| --- | --- | --- | --- | --- | --- | --- | --- | --- | --- |
| 1.6 | 17 | 16.6 | > 100 | > 30 | > 30 |  |  |  | C[C@@H](C(=O)O)[C@H]1CSC(N)=N1 (relative stereo) |
| 0.11 | 1.1 | 1.1 | 179 | > 30 | > 30 | 158 |  |  | NC1=NC(CC(=O)O)CS1 (stereo unspecified) |
| 0.33 | 30 | 30.2 | > 100 |  |  |  |  |  | CC(C(=O)O)C1CSC(N)=N1 (stereo in doubt; l-10a) |
| 0.29 | 36 | 35.5 | > 100 | > 30 | > 30 |  |  |  | C[C@@H](C(=O)O)[C@@H]1CSC(N)=N1 (relative stereo) |
| 1.3 |  |  | > 100 |  |  |  | Not Active | 5.91 | CC(C(=O)O)C1CSC(N)=N1 (stereo in doubt; l-10b) |
